Measured values from ChEMBL document CHEMBL5131548, “Novel Bis-phosphoglycerate Mutase Modulators for Treating Sickle Cell Disease” (ACS Med Chem Lett, 2022).

These molecules were tested against T1, Bisphosphoglycerate mutase (Homo sapiens, UniProt P07738) (assay: Inhibition of human Bis-phosphoglycerate mutase using 3-PG, GAP and NAD as substrate preincubated for 30 mins followed by substrate addition and measured after 100 mins in presence of GAPDH by resazurin reagent based fluorescence analysis).
T1 sequence (P07738 whole entry): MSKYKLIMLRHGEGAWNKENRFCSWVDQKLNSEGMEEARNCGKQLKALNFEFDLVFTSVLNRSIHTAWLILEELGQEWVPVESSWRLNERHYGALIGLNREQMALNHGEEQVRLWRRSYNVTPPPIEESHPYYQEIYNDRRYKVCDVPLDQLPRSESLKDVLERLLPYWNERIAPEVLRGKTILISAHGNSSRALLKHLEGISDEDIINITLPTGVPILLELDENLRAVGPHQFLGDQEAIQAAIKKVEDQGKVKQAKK

| IC50 [nM] | SMILES |
| --- | --- |
| 138 | Cc1nc(COc2ncccn2)sc1-c1cccc(-c2ccc(-c3noc(=O)[nH]3)cc2)n1 |
| 159 | Cc1nc(COc2ncccn2)sc1-c1csc(-c2cc(F)c(O)c(F)c2F)n1 |
| 92 | Cc1nc(COc2cccnn2)sc1-c1csc(-c2cc(F)c3[nH]nnc3c2)n1 |
| 19 | Cc1nc(COCC(C)(C)O)sc1-c1cccc(-c2cc(F)c3nn[nH]c3c2F)n1 |
| 21 | Cc1cnc(OCc2nc(C)c(-c3cccc(-c4cc(F)c5nn[nH]c5c4F)n3)s2)nc1 |
